Experimental data as given in US20140249135A1, “PIM KINASE INHIBITORS AND METHODS OF THEIR USE” (NOVARTIS AG, priority 2007, published 2014).
Read-outs that look alike come from different tables or passages of the source.

Tests used:
Pim1 kinase = Pim1 kinase (Homo sapiens, UniProt P11309); test: Pim1 ATP depletion assay; assay type: biochemical;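 also: Luciferase-luciferin luminescence readout of residual ATP after PIM1 transfers phosphate to a peptide substrate, 40 µM ATP added, reaction run to roughly half ATP consumption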
Chain of Pim1 kinase (P11309 whole entry): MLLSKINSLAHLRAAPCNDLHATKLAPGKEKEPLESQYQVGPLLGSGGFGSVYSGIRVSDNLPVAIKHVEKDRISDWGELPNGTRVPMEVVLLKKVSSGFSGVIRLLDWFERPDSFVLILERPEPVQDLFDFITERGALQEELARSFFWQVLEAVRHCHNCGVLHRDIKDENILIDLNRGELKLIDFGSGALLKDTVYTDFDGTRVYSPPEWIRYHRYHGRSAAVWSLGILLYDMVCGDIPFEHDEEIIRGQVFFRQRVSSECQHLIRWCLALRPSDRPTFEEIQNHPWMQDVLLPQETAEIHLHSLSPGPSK

Pim2 kinase = Pim2 kinase (Homo sapiens, UniProt Q9P1W9); test: Pim2 ATP depletion assay; assay type: biochemical;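 also: Luciferase-based luminescent readout of ATP remaining after PIM2 phosphorylates a BAD peptide, final 5 nM enzyme, 4 µM ATP, 10 µM peptide, 2.5% DMSO, run to roughly half ATP consumption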
Chain of Pim2 kinase (Q9P1W9 whole entry): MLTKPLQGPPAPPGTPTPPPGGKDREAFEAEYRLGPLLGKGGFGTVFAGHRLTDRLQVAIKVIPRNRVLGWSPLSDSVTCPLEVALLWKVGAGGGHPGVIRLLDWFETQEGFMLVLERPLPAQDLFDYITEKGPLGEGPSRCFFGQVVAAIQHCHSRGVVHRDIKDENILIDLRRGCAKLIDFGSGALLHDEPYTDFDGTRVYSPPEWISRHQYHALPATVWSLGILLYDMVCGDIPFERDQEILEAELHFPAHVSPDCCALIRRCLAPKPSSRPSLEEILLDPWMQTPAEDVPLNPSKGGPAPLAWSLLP

Pim3 kinase = Pim3 kinase (Homo sapiens, UniProt Q86V86); test: Pim3 ATP depletion assay; assay type: biochemical
[1] = tested on: KMS 11 (human myeloma cell line); test: Cell proliferation assay (CellTiter-Glo), KMS 11; assay type: cell-based; details: KMS11 cells
Description: (§1) KMS 11 (human myeloma cell line), were cultured in IMDM supplemented with 10% FBS, sodium pyruvate and antibiotics. Cells were plated in the same medium at a density of 2000 cells per well into 96 well tissue culture plates, with outside wells vacant, on the day of assay. MM1.s (human myeloma cell line), were cultured in RPMI1640 supplemented with 10% FBS, sodium pyruvate and antibiotics. Cells were plated in the same medium at a density of 5000 cells per well into 96 well tissue culture plates, with outside wells vacant, on the day of assay.
(§2) Test compounds supplied in DMSO were diluted into DMSO at 500 times the desired final concentrations before dilution into culture media to 2 times final concentrations. Equal volumes of 2× compounds were added to the cells in 96 well plates and incubated at 37° C. for 3 days.
(§3) After 3 days plates were equilibrated to room temperature and equal volume of CellTiter-Glow Reagent (Promega) was added to the culture wells. The plates were agitated briefly and luminescent signal was measured with luminometer. The percent inhibition of the signal seen in cells treated with DMSO alone vs. cells treated with control compound was calculated and used to determine EC50 values (i.e., the concentration of a test compound that is required to obtain 50% of the maximum effect in the cells) for tested compounds, as shown in Example 763.

[2] = tested on: MM1.s (human myeloma cell line); test: Cell proliferation assay (CellTiter-Glo), MM1.s; assay type: cell-based; details: MM1.s cells
Description: as §1, §2, §3

[3] = Pim1 ATP depletion assay, read-out: PIM1 IC50
[4] = Pim1 ATP depletion assay, read-out: IC50 (μM) PIM1

| IC50 (Pim1 kinase; [3]) [µM] | IC50 (Pim2 kinase; read-out: PIM2 IC50) [µM] | IC50 (Pim3 kinase; read-out: PIM3 IC50) [µM] | EC50 ([1]; read-out: KMS11 EC50) [µM] | EC50 ([2]; read-out: MM1.s EC50) [µM] | IC50 (Pim1 kinase; [4]) [µM] | IC50 (Pim2 kinase; read-out: IC50 (μM) PIM2) [µM] | IC50 (Pim3 kinase; read-out: IC50 (μM) PIM3) [µM] | EC50 ([1]; read-out: EC50 (μM) KMS11) [µM] | EC50 ([2]; read-out: EC50 (μM) MM1.s) [µM] | Compound | IC50 (Pim1 kinase) [µM] |
| --- | --- | --- | --- | --- | --- | --- | --- | --- | --- | --- | --- |
| < 1 | < 1 | < 1 | 1 to 5 | 1 to 5 |  |  |  |  |  | CO[C@@H]1C[C@H](N)CN(c2ccncc2NC(=O)c2nc(-c3ccccc3)ccc2N)C1 [Example 580, 3-Amino-6-phenyl-pyridine-2-carboxylic acid (3-amino-5-methoxy-3,4,5,6-tetrahydro-2H-[1,4′]bipyridinyl-3′-yl)-amide] |  |
| < 1 | < 1 | < 1 | 1 to 5 | 1 to 5 |  |  |  |  |  | CCCOc1ccc(F)c(-c2ccc(N)c(C(=O)Nc3cnccc3N3C[C@@H](N)C[C@@H](F)C3)n2)c1 [Example 577, 3-Amino-6-(2-fluoro-5-propoxy-phenyl)-pyridine-2-carboxylic acid (3-amino-5-fluoro-3,4,5,6-tetrahydro-2H-[1,4′]bipyridinyl-3′-yl)-amide] |  |
|  |  |  |  |  | < 1 | < 1 | < 1 | 1 to 5 | 1 to 5 | Nc1ccc(-c2c(F)cccc2F)nc1C(=O)Nc1cnccc1N1CCC[C@@H](N)C1 [Example 462, 3-Amino-6-(2,6-difluoro-phenyl)-pyridine-2-carboxylic acid (3-amino-3,4,5,6-tetrahydro-2H-[1,4′]bipyridinyl-3′-yl)-amide] |  |
|  |  |  |  |  | < 1 | < 1 | < 1 | < 1 | < 1 | CO[C@@H]1C[C@H](N)CN(c2ccncc2NC(=O)c2nc(-c3cc(C(=O)NC(C)C)ccc3F)ccc2N)C1 [Example 298, 3-Amino-6-(2-fluoro-5-isopropylcarbamoyl-phenyl)-pyridine-2-carboxylic acid (3-amino-5-methoxy-3,4,5,6-tetra-hydro-2H-[1,4′]bipyridinyl-3′-yl)-amide] |  |
| < 1 | < 1 | < 1 | < 1 | 1 to 5 |  |  |  |  |  | CCCOc1ccc(F)c(-c2ccc(N)c(C(=O)Nc3cnccc3N3C[C@@H](N)C[C@@H](OC)C3)n2)c1 [Example 579, 3-Amino-6-(2-fluoro-5-propoxy-phenyl)-pyridine-2-carboxylic acid (3-amino-5-methoxy-3,4,5,6-tetrahydro-2H-[1,4′]bi-pyridinyl-3′-yl)-amide] |  |
|  |  |  |  |  | < 1 | < 1 | < 1 | 1 to 5 | 1 to 5 | CCCOc1ccc(F)c(-c2ccc(N)c(C(=O)Nc3cnccc3N3CCC[C@H](N)C3)n2)c1F [Example 491, 3-Amino-6-(2,6-difluoro-3-propoxy-phenyl)-pyridine-2-carboxylic acid (3-amino-3,4,5,6-tetrahydro-2H-[1,4′]bipyridinyl-3′-yl)-amide] |  |
|  |  |  |  |  | < 1 | < 1 | < 1 | 1 to 5 | 5 to 10 | CC(C)NC(=O)c1ccc(F)c(-c2nc(C(=O)Nc3cnccc3N3CCC[C@H](N)C3)ccc2F)c1 [Example 443, 5-Fluoro-6-(2-fluoro-5-isopropylcarbamoyl-phenyl)-pyridine-2-carboxylic acid (3-amino-3,4,5,6-tetrahydro-2H-[1,4′]bipyridinyl-3′-yl)-amide] |  |
|  |  |  |  |  | < 1 | < 1 | < 1 | < 1 | < 1 | CC(C)NC(=O)c1ccc(F)c(-c2ccc(N)c(C(=O)Nc3cnccc3N3C[C@@H](N)C[C@@H](F)C3)n2)c1 [Example 292, 3-Amino-6-(2-fluoro-5-isopropylcarbamoyl-phenyl)-pyridine-2-carboxylic acid (3-amino-5-fluoro-3,4,5,6-tetra-hydro-2H-[1,4′]bipyridinyl-3′-yl)-amide] |  |
| < 1 | < 1 | < 1 | 1 to 5 | < 1 |  |  |  |  |  | CC(C)NC(=O)c1ccc(F)c(-c2ccc(N)c(C(=O)Nc3cnccc3N3CC[C@H](O)[C@H](N)C3)n2)c1 [Example 753, 3-Amino-6-(2-fluoro-5-isopropyl-carbamoyl-phenyl)-pyridine-2-carboxylic acid (3-amino-4-hydroxy-3,4,5,6-tetrahydro-2H-[1,4′]bipyridinyl-3′-yl)-amide] |  |
| < 1 | < 1 | < 1 | 1 to 5 | 1 to 5 |  |  |  |  |  | Nc1ccc(-c2ncccc2F)nc1C(=O)Nc1cnccc1N1CCC[C@H](N)C1 [Example 702, 5-Amino-3′-fluoro-[2,2′]bi-pyridinyl-6-carboxylic acid (3-amino-3,4,5,6-tetrahydro-2H-[1,4′]bipyridinyl-3′-yl)-amide] |  |

The next lines start with the compound.

| Compound | IC50 (Pim1 kinase; [3]) [µM] | IC50 (Pim2 kinase; read-out: PIM2 IC50) [µM] | IC50 (Pim3 kinase; read-out: PIM3 IC50) [µM] | EC50 ([1]; read-out: KMS11 EC50) [µM] | EC50 ([2]; read-out: MM1.s EC50) [µM] | IC50 (Pim1 kinase; [4]) [µM] | IC50 (Pim2 kinase; read-out: IC50 (μM) PIM2) [µM] | IC50 (Pim3 kinase; read-out: IC50 (μM) PIM3) [µM] | EC50 ([1]; read-out: EC50 (μM) KMS11) [µM] | EC50 ([2]; read-out: EC50 (μM) MM1.s) [µM] | IC50 (Pim1 kinase) [µM] |
| --- | --- | --- | --- | --- | --- | --- | --- | --- | --- | --- | --- |
| Nc1ccc(-c2c(F)cccc2F)nc1C(=O)Nc1cnccc1N1CC[C@@H](O)[C@H](N)C1 [Example 679, 3-Amino-6-(2,6-difluoro-phenyl)-pyridine-2-carboxylic acid (3-amino-4-hydroxy-3,4,5,6-tetrahydro-2H-[1,4′]bi-pyridinyl-3′-yl)-amide] |  | < 1 | < 1 | 1 to 5 | < 1 |  |  |  |  |  | < 1 |
| Nc1ccc(-c2c(F)cccc2F)nc1C(=O)Nc1cnccc1N1CC[C@H](F)[C@@H](N)C1 [Example 276, 3-Amino-6-(2,6-difluoro-phenyl)-pyridine-2-carboxylic acid (3-amino-4-fluoro-3,4,5,6-tetrahydro-2H-[1,4′]bipyridinyl-3′-yl)-amide] |  |  |  |  |  | < 1 | < 1 | < 1 | 1 to 5 | 5 to 10 |  |
| CCCOc1ccc(F)c(-c2nc(C(=O)Nc3cnccc3N3CCC[C@H](N)C3)c(N)cc2F)c1F [Example 494, 3-Amino-6-(2,6-difluoro-3-propoxy-phenyl)-5-fluoro-pyridine-2-carboxylic acid (3-amino-3,4,5,6-tetrahydro-2H-[1,4′]bipyridinyl-3′-yl)-amide] |  |  |  |  |  | < 1 | < 1 | < 1 | < 1 | 1 to 5 |  |
| N[C@H]1CCCN(c2ccncc2NC(=O)c2ccc(F)c(-c3ccccc3)n2)C1 [Example 442, 5-Fluoro-6-phenyl-pyridine-2-carboxylic acid (3-amino-3,4,5,6-tetrahydro-2H-[1,4′]bipyridinyl-3′-yl)-amide] |  |  |  |  |  | < 1 | < 1 | < 1 | 1 to 5 | 5 to 10 |  |
| Nc1ccc(-c2c(F)cccc2F)nc1C(=O)Nc1cnccc1N1CCCC2(CCNC2)C1 (stereo not shown) [Example 290, 3-Amino-6-(2,6-difluoro-phenyl)-pyridine-2-carboxylic acid [4-(2,7-diaza-spiro[4.5]dec-7-yl)-pyridin-3-yl]-amide] |  |  |  |  |  | < 1 | < 1 | < 1 | 1 to 5 | 1 to 5 |  |
| Nc1cc(F)c(-c2ccccc2F)nc1C(=O)Nc1cnccc1N1CCC[C@H](N)C1 [Example 517, 3-Amino-5-fluoro-6-(2-fluoro-phenyl)-pyridine-2-carboxylic acid (3-amino-3,4,5,6-tetrahydro-2H-[1,4′]bipyridinyl-3′-yl)-amide] |  |  |  |  |  | < 1 | < 1 | < 1 | 1 to 5 | 1 to 5 |  |
| Nc1cc(F)c(-c2ncccc2F)nc1C(=O)Nc1cnccc1N1CCC[C@H](N)C1 [Example 744, 5-Amino-3,3′-difluoro-[2,2′]bi-pyridinyl-6-carboxylic acid (3-amino-3,4,5,6-tetrahydro-2H-[1,4′]bipyridinyl-3′-yl)-amide] | < 1 | < 1 | < 1 | 1 to 5 | 1 to 5 |  |  |  |  |  |  |
| CC(C)Oc1ccc(F)c(-c2nc(C(=O)Nc3cnccc3N3CCC[C@H](N)C3)c(N)cc2F)c1F [Example 496, 3-Amino-6-(2,6-difluoro-3-isopropoxy-phenyl)-5-fluoro-pyridine-2-carboxylic acid (3-amino-3,4,5,6-tetrahydro-2H-[1,4′]bipyridinyl-3′-yl)-amide] |  |  |  |  |  | < 1 | < 1 | < 1 | < 1 | < 1 |  |
| N[C@@H]1CN(c2ccncc2NC(=O)c2ccc(F)c(-c3c(F)cccc3F)n2)CC[C@H]1O [Example 683, 6-(2,6-Difluoro-phenyl)-5-fluoro-pyridine-2-carboxylic acid (3-amino-4-hydroxy-3,4,5,6-tetrahydro-2H-[1,4′]bi-pyridinyl-3′-yl)-amide] | < 1 | < 1 | < 1 | < 1 | 1 to 5 |  |  |  |  |  |  |
| N[C@H]1CCCN(c2ccncc2NC(=O)c2nc(-c3c(F)cccc3F)ccc2F)C1 [Example 570, 6-(2,6-Difluoro-phenyl)-3-fluoro-pyridine-2-carboxylic acid (3-amino-3,4,5,6-tetrahydro-2H-[1,4′]bipyridinyl-3′-yl)-amide] | < 1 | < 1 | < 1 | 1 to 5 | 1 to 5 |  |  |  |  |  |  |
